Assay [1] deals with hLH receptor (Homo sapiens, UniProt P22888). Put plainly: inhibition of LH EC80 response at hLH receptor. In kind it is cell-based.
The target of assay [2] is T1, human FSH receptor (hFSHR) (Homo sapiens, UniProt P23945).
T1 sequence (P23945 18-695): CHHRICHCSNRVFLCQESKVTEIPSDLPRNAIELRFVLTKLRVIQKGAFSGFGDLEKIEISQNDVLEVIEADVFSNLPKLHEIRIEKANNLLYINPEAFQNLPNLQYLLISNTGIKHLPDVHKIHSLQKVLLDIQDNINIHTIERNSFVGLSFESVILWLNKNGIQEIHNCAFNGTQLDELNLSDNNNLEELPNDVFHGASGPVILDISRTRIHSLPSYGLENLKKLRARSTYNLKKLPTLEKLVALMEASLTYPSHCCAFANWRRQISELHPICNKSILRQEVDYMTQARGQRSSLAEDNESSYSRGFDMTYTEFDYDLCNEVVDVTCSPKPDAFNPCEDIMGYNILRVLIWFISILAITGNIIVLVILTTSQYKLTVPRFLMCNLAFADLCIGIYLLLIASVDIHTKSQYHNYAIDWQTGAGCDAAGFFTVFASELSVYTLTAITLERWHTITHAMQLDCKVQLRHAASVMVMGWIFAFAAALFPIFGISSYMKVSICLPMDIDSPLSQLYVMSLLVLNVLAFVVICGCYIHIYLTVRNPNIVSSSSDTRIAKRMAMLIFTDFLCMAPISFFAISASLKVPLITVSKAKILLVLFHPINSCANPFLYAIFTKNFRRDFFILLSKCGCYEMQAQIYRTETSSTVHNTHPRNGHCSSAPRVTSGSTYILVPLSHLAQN
Put plainly: HTRF cAMP inhibition. The assay is classed as cell-based. For orientation: Time-resolved FRET reads energy transfer from a long-lived donor to a nearby acceptor.

hLH receptor, sequence (P22888 27-699): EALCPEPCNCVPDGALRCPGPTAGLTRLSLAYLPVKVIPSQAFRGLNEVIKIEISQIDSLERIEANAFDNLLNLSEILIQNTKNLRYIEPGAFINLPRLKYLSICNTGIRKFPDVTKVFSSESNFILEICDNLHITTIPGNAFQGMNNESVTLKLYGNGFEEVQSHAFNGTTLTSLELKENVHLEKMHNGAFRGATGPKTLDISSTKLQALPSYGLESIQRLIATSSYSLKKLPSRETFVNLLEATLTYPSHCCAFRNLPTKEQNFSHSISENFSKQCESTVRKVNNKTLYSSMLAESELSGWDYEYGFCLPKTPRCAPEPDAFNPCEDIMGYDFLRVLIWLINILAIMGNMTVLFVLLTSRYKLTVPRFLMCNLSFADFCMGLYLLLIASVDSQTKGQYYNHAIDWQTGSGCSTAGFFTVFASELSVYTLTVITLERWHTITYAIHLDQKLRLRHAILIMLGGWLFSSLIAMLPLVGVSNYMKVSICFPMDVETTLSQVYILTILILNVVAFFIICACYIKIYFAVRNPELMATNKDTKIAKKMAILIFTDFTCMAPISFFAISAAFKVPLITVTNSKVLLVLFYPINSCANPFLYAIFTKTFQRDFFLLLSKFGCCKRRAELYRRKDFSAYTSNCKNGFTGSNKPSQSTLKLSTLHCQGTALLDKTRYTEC

Take `COc1ccc(C(=O)Nc2ccc(C(C)(C)C#N)cc2)cc1OC` [ADX61623]: the IC50 (in general, the concentration that inhibits the measured activity by half) in assay [1] was found to be 3400 ± 800 nM; in assay [2], 700 ± 200 nM.
